A value given as a limit tells only on which side of the number the result lay.

The text below walks through data of patent publication US20040121307A1, “Early detection of cellular differentiation using optophoresis” (Genoptix, Inc, priority 2002, published 2004).

Assay [1] concerns Erythromycin-resistant strain. Put plainly: Bacterial screen for drug sensitivity, escape velocity, resistant strain. The assay is classed as cell-based, Staphylococcus aureus. As to conditions: 5 μg/ml Erythromycin (FIG. 80). As for the experimental part:
(§1) In this experiment, escape velocity was measured over time in wild type Staphylococcus aureus and an Erythromycin-resistant strain. 5 μg/ml of Erythromycin was applied to both the wild type Staphylococcus aureus and an Erythromycin-resistant strain. Escape velocity measurements were taken at time zero, 30 minutes post-treatment, and 3 hours post-treatment. […] In this experiment, however, escape velocity measurements were made at time zero, 30 minutes post-treatment, and 1 hour post-treatment, and 2 hours post-treatment. A reduction in escape velocity of the Erythromycin-sensitive strain can be seen at 1 hour post-treatment.

In assay [2] the test system is wild type Staphylococcus aureus. Put plainly: Bacterial screen for drug sensitivity, escape velocity, sensitive strain. The assay is classed as cell-based. The procedure:
as §1

For assay [3], the system named is U937 cells. Put plainly: ApoAlert Annexin V assay (FACS). It is filed as cell-based. The following applies: 4 μg/ml camptothecin. As for the experimental part:
Still other assays provide earlier indications of the onset of apoptosis. For example, commercially available assays, such as the ApoAlert Annexin V assay (available from CLONETECH) are able to detect changes in the plasma membrane by using a FITC conjugate of annexin V. The ApoAlert Annexin V assay is based on the observation that within about 6-10 hours after the onset of apoptosis, most cell types translocate phosphatidylserine (PS) from the inner face of the plasma membrane to the exterior of the cell surface. Once the PS is exposed on the exterior of the cell surface, the presence of PS can be detected using a FITC conjugate of annexin V. Fluorescence microscopy and flow cytometry can then be used to detect the binding of the FITC conjugate to the […]. While this assay does provide for relatively early detection of apoptotic events, the assay requires labeled annexin V markers as well as subsequent analysis by fluorescent microscopy or flow cytometry.
Another experiment using U937 cells treated with 4 μg/ml camptothecin was also carried out. In this experiment, however, the cells were subject to analysis using an annexin V assay. The assay was performed using the ApoAlert Annexin V Apoptosis Kit (available from Clonetech, catalog no. K2025-1). […] Significant annexin V binding is seen later in the 3 and 4 hour time points. […]

Assay [4] deals with activated caspases in U937 cells. The experiment in a line: Homogeneous Caspases Assay, Fluorimetric. The assay is classed as cell-based. As to conditions: 4 μg/ml camptothecin, 300 cells/well. The text has this: Another assay that provides for even earlier detection of apoptotic events are assays that detect caspase activation. For example, the Homogeneous Caspases Assay, Fluorimetric (available from Roche, catalog no. 3005372), is able to detect caspase activation. […] The kit uses the substrate DEVD-Rhodamine 110 which is cleaved by activated caspases. When DEVD-Rhodamine 110 is cleaved, the released Rhodamine-110 molecule fluoresces upon excitation. By comparing the fluorescence from an apoptotic sample and an uninduced control, the increase in caspase activity can be quantified. While caspase assays do have the ability to detect relatively early apoptotic events, the assays require fluorometric enzyme substrates. Yet another experiment using U937 cells treated with 4 μg/ml camptothecin was carried out. In this experiment, the cells were subject to analysis using a caspase assay (Homogeneous Caspases Assay, Fluorimetric-available from Roche, catalog no. 3005372). The caspase assay is a fluorometric assay carried out in 96-well plates. […] Upon cleavage of the substrate by activated caspases, fluorescence of the released Rhodamine 110 is measured. […] FIG. 102 illustrates a graph of the relative fluorescence units (RFU) as a function of incubation times (hours) for the control (blank) as well as the camptothecin-treated cells.

The test system of assay [5] is U937 cells. The experiment in a line: Experiment 4: effect of camptothecin, escape velocity. It is filed as cell-based. The following applies: for escape velocity, Average: 0.04 μg/ml camptothecin. As for the experimental part:
The objective of this experiment is to test the effects of camptothecin on the escape velocities of U937 cells. Camptothecin inhibits DNA topoisomerase I and induces apoptosis. A control and three concentrations of camptothecin were tested: […]. After adding the camptothecin, the flasks are incubated at 37° C. 5% CO2.
At the timepoints of 4 hours and 6 hours, 200 μl of cells are spun for 5 minutes at 5000 rpm. The cells are then resuspended in […] PBS/1% BSA and […] trypan blue.
Optophoretic techniques have been investigated for their potential to detect the early onset of apoptosis in mammalian cells. U.S. patent application Ser. No. 10,240,611, for example, discloses multiple experiments in which U937 cells were treated with camptothecin and subsequently monitored Optophoretically using measured escape velocities. In one experiment, the escape velocity of the camptothecin-treated cells were measured at 4 and 6 hours after treatment. Noticeable changes in escape velocity were seen as early as 4 hours after treatment (see, e.g., FIG. 34). In that experiment, U937 cells were treated with 4 μg/ml of camptothecin and resuspended in PBS/1% BSA. Escape velocity measurements were taken after 4 and 6 hours. Table 18, reproduced below, includes the results of the escape velocity measurements for the test cells as well as the controls.

For a further assay, the system named is CEM/C2 cell line. As to conditions: cell lines obtained from ATCC; cited from earlier work.
Assay [6] relates to K562 Cells. Put plainly: Experiment 7: time and concentration dependence of paciltaxel, escape velocity. It is filed as cell-based. Details: escape velocity, Ave.: unit not given here. As for the experimental part: In this experiment, the effect of time and concentration of paciltaxel was tested using K562 cells. Paciltaxel is a chemotherapeutic agent whose mechanism of action is the […] and the subsequent disruption of the cytoskeleton in cells. The timepoints tested were 4 hours, 23 hours, 30 hours and 47 hours. The concentrations of paciltaxel used in the experiment were 10 nM, 1 nM, 100 pM, and 10 pM. At each timepoint, 300 μl of cells were removed from each sample and centrifuged for 5 minutes at 5,000 rpm. The cells were then resuspended in PBS/1% BSA and trypan blue.

Assay [7] deals with K562 Cells. Put plainly: Escape velocities of different cell types (1064 system, CYTOP coated coverslips). It is filed as cell-based. The following applies: 26 Hr. Taxol Treatment. The source says:
Certain of the data reported herein were generated with the following setup. Optical gradient fields were generated using a Michelson interferometer and either a 150 mW, 812 nm laser (812 system) or a 2.5 W, 1064 nm laser (1064 system). The 812 system used a 100× (1.25 NA) oil immersion lens to focus the fringe pattern and to visualize the sample. The 1064 system used a 20× objective to focus the fringes and a 60× objective to visualize the sample. In general the sample cell was a coated microscope slide and/or coverslip that was sealed with Vaseline. Coverslip spacers controlled the height of the cell at approximately 150 micrometers.
Escape velocities were measured using a gradient field generated by the 1064 system on CYTOP coated coverslips.

In the case of `CC[C@H]1OC(=O)[C@H](C)[C@@H](O[C@H]2C[C@@](C)(OC)[C@@H](O)[C@H](C)O2)[C@H](C)[C@@H](O[C@@H]2O[C@H](C)C[C@H](N(C)C)[C@H]2O)[C@](C)(O)C[C@@H](C)C(=O)[C@H](C)[C@@H](O)[C@]1(C)O` [Erythromycin], the “escape velocity after treatment” value in assay [1] was “same escape velocity as the untreated Erythromycin-sensitive strain”. For the same molecule, the “time at which a reduction in escape velocity can be seen” value in assay [2] (5 μg/ml Erythromycin (FIG. 81)) turned out to be 1 h. Besides, the “change of escape velocity over time” value in assay [2] (5 μg/ml Erythromycin, time zero, 30 minutes, 3 hours post-treatment (FIG. 80)) is “escape velocity of the Erythromycin-sensitive strain decreases”.
On to `CC[C@@]1(O)C(=O)OCc2c1cc1n(c2=O)Cc2cc3ccccc3nc2-1` [camptothecin], for which, in the assay on U937 cells [3], the “time at which the annexin V assay begins to detect the onset of apoptosis” value worked out at 2 h. Besides, the “time after administration at which caspase activity is detected” value in assay [4] is > 4 h. In the assay with U937 cells [5] (40 ng/ml camptothecin, 4 and 6 hours (FIG. 34)), the “shift in escape velocity over time” value is listed as “shift to lower escape velocities over time”. In addition, the entries for the “escape velocity, Average” value in the assay with U937 cells [5] (4 hours) and in the assay on U937 cells [5] (6 hours) were 10.16 μm/sec and 9.52 μm/sec, respectively. Further, the “fold less sensitive than parental CCRF-CEM” value with CEM/C2 cell line was 970 fold.
`CC(=O)O[C@H]1C(=O)[C@@]2(C)[C@H]([C@H](OC(=O)c3ccccc3)[C@]3(O)C[C@H](OC(=O)[C@H](O)[C@@H](NC(=O)c4ccccc4)c4ccccc4)C(C)=C1C3(C)C)[C@]1(OC(C)=O)CO[C@@H]1C[C@@H]2O` [paciltaxel]: the “escape velocity, Ave.” value stood at 15.7 with K562 Cells [6] (10 pM paciltaxel, 4 Hours); 15.7 with K562 Cells [6] (10 pM paciltaxel, 23 Hours); 16.0 in the assay on K562 Cells [6] (10 pM paciltaxel, 30 Hours); 16.2 in the assay on K562 Cells [6] (10 pM paciltaxel, 47 Hours); 15.9 with K562 Cells [6] (100 pM paciltaxel, 4 Hours); 17.1 with K562 Cells [6] (100 pM paciltaxel, 23 Hours). For the same molecule, the “escape velocity, Ave.” value is recorded as 17.6 in the assay on K562 Cells [6] (100 pM paciltaxel, 30 Hours); 17.0 in the assay with K562 Cells [6] (100 pM paciltaxel, 47 Hours); 15.6 in the assay on K562 Cells [6] (1 nM paciltaxel, 4 Hours); 16.9 in the assay with K562 Cells [6] (1 nM paciltaxel, 23 Hours); 16.9 with K562 Cells [6] (1 nM paciltaxel, 30 Hours); 16.7 with K562 Cells [6] (1 nM paciltaxel, 47 Hours). Further, the “escape velocity, Ave.” value with K562 Cells [6] (10 nM paciltaxel, 4 Hours) was determined as 15.3; in the assay with K562 Cells [6] (10 nM paciltaxel, 23 Hours), 16.9; in the assay on K562 Cells [6] (10 nM paciltaxel, 30 Hours) it was 17.4; in the assay with K562 Cells [6] (10 nM paciltaxel, 47 Hours) it was 17.1. Moreover, the “optophoretic effect on cells” value with K562 Cells [6] (10 pM to 10 nM, 4 to 47 hours) was “both a time and dose dependent optophoretic effect”. For the same molecule, in the assay with K562 Cells [7], the “Escape Velocity” value is on record as 8.2 +/− 0.4 um/sec.
